Results as given in ChEMBL document CHEMBL5108044, “Discovery of a Novel Potent STAT3 Inhibitor HP590 with Dual p-Tyr705/Ser727 Inhibitory Activity for Gastric Cancer Treatment” (J Med Chem, 2022).
Activity calls are given as the source filed them. The rule behind the calls is not given here.

What was measured:
[1] = Toxicity in […] mouse xenografted with human MKN-45 cells assessed as liver damage at 25 to 50 mg/kg, po qd administered for 5 weeks by H and E staining based analysis; format: organism-based; conditions: in vivo, 840 h, dose 25-50 mg/kg
[2] = Apparent volume of distribution in ICR mouse plasma at 1 mg/kg, iv measured up to 24 hrs by LC-MS/MS analysis; format: ADME, organism-based; conditions: read-out: Vz
AGS [3] = assay: Induction of apoptosis in human AGS cells assessed as viable cells at 20 nM incubated for 48 hrs by FITC-annexin V/propidium iodide staining based flow cytometry (reference value: 87.2%); format: functional; conditions: read-out: Activity
MKN-45 = assay: Inhibition of STAT3 mediated oxidative phosphorylation at Ser727 residue in human MKN-45 cells assessed as reduction in oxidative phosphorylation at less than 40 nM incubated for 1 hr by Seahorse XF24 extracellular flux analyzer; format: functional, cell-based
MGC-803 = assay: Inhibition of colony formation in STAT3 knockdown human MGC-803 cells assessed as reduction in number of colonies incubated for 5 to 7 days by crystal violet staining based assay; format: functional, cell-based; conditions: time 5-7 day
[4] = target: Signal transducer and activator of transcription 3 (Homo sapiens, UniProt P40763); assay: Inhibition of STAT3 phosphorylation at Ser727 residue in human MGC-803 cells incubated upto 24 hrs by Western blotting analysis; format: cell-based; conditions: dose <= 40.0 nM, DDE = dose-dependent effect
AGS [5] = assay: Inhibition of colony formation in STAT3 knockdown human AGS cells assessed as reduction in number of colonies incubated for 5 to 7 days by crystal violet staining based assay; format: functional, cell-based; conditions: time 5-7 day

Sequence of Signal transducer and activator of transcription 3 (P40763 whole entry): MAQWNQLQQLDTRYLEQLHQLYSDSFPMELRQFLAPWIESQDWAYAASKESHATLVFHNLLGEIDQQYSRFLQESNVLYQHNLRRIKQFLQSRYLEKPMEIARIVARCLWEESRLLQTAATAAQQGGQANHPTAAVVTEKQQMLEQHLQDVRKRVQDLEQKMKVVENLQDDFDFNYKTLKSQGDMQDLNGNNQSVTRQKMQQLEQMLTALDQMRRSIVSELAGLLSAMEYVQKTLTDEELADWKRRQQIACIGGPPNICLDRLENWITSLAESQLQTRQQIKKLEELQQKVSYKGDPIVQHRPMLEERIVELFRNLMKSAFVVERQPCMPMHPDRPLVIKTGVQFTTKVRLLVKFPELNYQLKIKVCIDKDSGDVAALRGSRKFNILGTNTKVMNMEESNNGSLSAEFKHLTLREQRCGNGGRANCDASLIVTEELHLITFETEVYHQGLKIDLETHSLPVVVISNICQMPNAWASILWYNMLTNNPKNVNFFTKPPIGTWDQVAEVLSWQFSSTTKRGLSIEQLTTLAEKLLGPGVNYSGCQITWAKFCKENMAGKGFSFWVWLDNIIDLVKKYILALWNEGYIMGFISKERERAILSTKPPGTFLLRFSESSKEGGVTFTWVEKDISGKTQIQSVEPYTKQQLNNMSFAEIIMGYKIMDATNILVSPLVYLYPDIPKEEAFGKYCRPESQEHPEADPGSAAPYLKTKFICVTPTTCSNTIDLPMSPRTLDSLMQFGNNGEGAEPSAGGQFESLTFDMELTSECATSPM

Vd [2]: 5.76 L/kg
inhibition [4]: Dde
Compound: O=C(c1ccc(-c2noc(-c3ccc(C(F)(F)F)cc3)n2)cc1)N1CCN(Cc2ccc(OCC(F)(F)F)cc2)CC1
Activity [1]: Non-Toxic
viability at 0.02 µM (AGS [3]): 50.3%
inhibition (MKN-45): Active
inhibition (MGC-803): Active
inhibition (AGS [5]): Active
